Source: article PMC2995015 (Biochemistry, 2010)
Numbering of substitutions follows the chain as printed.

Key:
Assay type in all cases: cell-based
PMAT wild type = biological target: T1, PMAT wild type (Homo sapiens, UniProt Q7RTT9); assay: Concentration-dependent transport kinetics in stably transfected MDCK cells; settings: 1 min, 37°C
T1 sequence (Q7RTT9 1-530): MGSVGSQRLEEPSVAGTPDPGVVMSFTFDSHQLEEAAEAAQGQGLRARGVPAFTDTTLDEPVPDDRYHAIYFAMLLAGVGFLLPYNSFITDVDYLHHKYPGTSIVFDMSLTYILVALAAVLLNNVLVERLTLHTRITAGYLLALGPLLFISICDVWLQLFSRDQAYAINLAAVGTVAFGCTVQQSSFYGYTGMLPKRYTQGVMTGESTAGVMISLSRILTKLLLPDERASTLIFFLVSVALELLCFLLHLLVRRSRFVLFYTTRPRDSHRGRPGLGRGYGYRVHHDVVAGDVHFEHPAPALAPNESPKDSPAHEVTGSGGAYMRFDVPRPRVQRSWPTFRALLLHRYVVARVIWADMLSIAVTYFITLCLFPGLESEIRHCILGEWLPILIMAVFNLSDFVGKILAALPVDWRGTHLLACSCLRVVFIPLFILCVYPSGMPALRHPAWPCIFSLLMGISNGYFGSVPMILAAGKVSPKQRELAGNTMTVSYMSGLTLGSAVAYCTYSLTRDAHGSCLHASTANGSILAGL

PMAT mutant Y85W [1] = biological target: T2, PMAT mutant Y85W (Homo sapiens, UniProt Q7RTT9, Y85W); assay: as above; settings: for Km / Vmax: Y85W, MDCK cells, 1 min, 37°C
T2 sequence (Q7RTT9 1-530 Y85W): T1 sequence (Q7RTT9 1-530) with Y85W

PMAT mutant Y112W [2] = biological target: T3, PMAT mutant Y112W (Homo sapiens, UniProt Q7RTT9, Y112W); assay: as above; settings: for Km / Vmax: Y112W, MDCK cells, 1 min, 37°C
T3 sequence (Q7RTT9 1-530 Y112W): T1 sequence (Q7RTT9 1-530) with Y112W

PMAT mutant Y112W [3] = biological target: T3, PMAT mutant Y112W; assay: Single-concentration 3H-substrate uptake in stably transfected MDCK cells; settings: MPP+ 1 μM, 5-HT 10 μM, dopamine 10 μM, 4 min, 37°C
PMAT mutant Y85W [4] = biological target: T2, PMAT mutant Y85W; assay: as above; settings: MPP+ 1 μM, 5-HT 10 μM, dopamine 10 μM, 4 min, 37°C
WT PMAT = biological target: T4, WT PMAT (Homo sapiens, UniProt Q7RTT9); assay: Uptake of uridine in the presence of NBMPR in stably transfected MDCK cells; settings: 0.5 μM NBMPR, vs vector-transfected cells
T4 sequence (Q7RTT9 1-530): T1 sequence (Q7RTT9 1-530)

PMAT mutant Y85W [5] = biological target: T2, PMAT mutant Y85W; assay: as above; settings: 0.5 μM NBMPR, vs vector-transfected cells
PMAT mutant Y112A = biological target: T5, PMAT mutant Y112A (Homo sapiens, UniProt Q7RTT9, Y112A); assay: as above; settings: 0.5 μM NBMPR, vs vector-transfected cells
T5 sequence (Q7RTT9 1-530 Y112A): T1 sequence (Q7RTT9 1-530) with Y112A

PMAT mutant Y112S = biological target: T6, PMAT mutant Y112S (Homo sapiens, UniProt Q7RTT9, Y112S); assay: as above; settings: 0.5 μM NBMPR, vs vector-transfected cells
T6 sequence (Q7RTT9 1-530 Y112S): T1 sequence (Q7RTT9 1-530) with Y112S

PMAT mutant Y85W [6] = biological target: T2, PMAT mutant Y85W; assay: Uridine inhibition of organic cation transport in stably transfected MDCK cells; settings: uridine 1 mM; data not shown

Structure (SMILES) | Km (PMAT wild type) [µM] | Vmax (PMAT wild type) [nmol/mg protein/min] | Km (PMAT mutant Y85W [1]) [µM] | Vmax (PMAT mutant Y85W [1]) [nmol/mg protein/min] | transport efficiencies, % of the WT PMAT (PMAT mutant Y112W [2]; Y112W vs WT PMAT) | Km (PMAT mutant Y112W [2]) [µM] | Vmax (PMAT mutant Y112W [2]) [nmol/mg protein/min] | activity retained compared to cells expressing WT PMAT (PMAT mutant Y112W [3]) | increase in maximal velocity (Vmax) (PMAT mutant Y85W [1]; Y85W vs WT PMAT) [fold] | increase in transport efficiency (Vmax/Km) (PMAT mutant Y85W [1]; Y85W vs WT PMAT) | reduction in Vmax (PMAT mutant Y112W [2]; Y112W vs WT PMAT) [fold] | transport activity compared to WT PMAT (PMAT mutant Y85W [4]) | transport activity for uridine (WT PMAT) | transport activity for uridine (PMAT mutant Y85W [5]) | transport activity for uridine (PMAT mutant Y112A) | transport activity for uridine (PMAT mutant Y112S) | inhibitory effect on Y85W-mediated organic cations transport (PMAT mutant Y85W [6])
NCCc1ccc(O)c(O)c1 [Dopamine, dopamine] | 244 ± 16.2 | 4.12 ± 0.35 | 243 ± 30.4 | 3.87 ± 0.14 | 60–70% | 88 ± 6.8 | 1.03 ± 0.09 | 50–60% |  |  |  |  |  |  |  |  | 
C[n+]1ccc(-c2ccccc2)cc1 [MPP^+, 1-methyl-4-phenylpyridinium] | 42.2 ± 5 | 0.60 ± 0.04 | 31.1 ± 6.9 | 0.94 ± 0.10 |  | 147 ± 36.3 | 0.23 ± 0.02 | less than 20% | 1.6 | about 2 fold | 2.6 | significantly higher transport activity |  |  |  |  | 
NCCc1c[nH]c2ccc(O)cc12 [Serotonin, serotonin] | 168 ± 18.9 |  | 308 ± 50.8 |  |  | 104 ± 13.2 | 1.04 ± 0.13 |  |  |  |  |  |  |  |  |  | 
O=c1ccn([C@@H]2O[C@H](CO)[C@@H](O)[C@H]2O)c(=O)[nH]1 [uridine] |  |  |  |  |  |  |  |  |  |  |  |  | no statistically significant transport activity | no statistically significant transport activity | no statistically significant transport activity | no statistically significant transport activity | no significant inhibitory effect
